Laboratory results published in PMC7211202 (Investigational New Drugs, 2019).
Several values for one entry are separate records, joined by “and”; a condition that tells them apart may be missing. Equal values may be shown once. Entries after “also recorded” stand apart in the source; their conditions may differ.

How the values were obtained:
[1] = Dose-limiting toxicities and maximum tolerated dose; assay type: in vivo
Procedure: This open-label phase 1 study was conducted at 16 centers (ClinicalTrials.gov, NCT01723020). TP53 mutation status was confirmed by central laboratory assessment. The study was planned with two parts: a 3-part dose escalation (Part 1) and a dose expansion (Part 2). […] Intermediate doses were allowed when deemed appropriate. The dose expansion was planned for patients with MDM2-amplified tumors (group 1; liposarcomas, GBM, and other solid tumors), potentially MDM2-overexpressing tumors (group 2; ER+ metastatic breast cancer), or multiple myeloma (group 3).
Each patient was monitored for 21 days for the occurrence of dose-limiting toxicities (DLTs), defined as febrile neutropenia, neutropenic infection, grade 4 neutropenia lasting >7 days, grade ≥ 3 thrombocytopenia lasting >7 days (solid tumors only), grade 3 thrombocytopenia with grade ≥ 2 bleeding (solid tumors only), grade 3 or 4 thrombocytopenia with grade > 1 bleeding (multiple myeloma only), grade 4 thrombocytopenia (solid tumors only), or grade 4 thrombocytopenia lasting >14 days (multiple myeloma only), or as grade ≥ 3 nausea, vomiting, or diarrhea after support; grade 3 fatigue lasting >7 days; any other grade ≥ 3 adverse event (AE); grade ≥ 3 kidney injury (multiple myeloma only), or treatment-related AEs not returning to grade ≤ 1 (solid tumors only) per Common Terminology Criteria for Adverse Events (CTCAE), version 4.0. […] Treatment continued until disease progression, intolerable toxicity, or withdrawal of consent.

[2] = tested on: P53WT solid tumors or multiple myeloma; assay: Tumor response (RECIST 1.1, Macdonald, IMWG criteria); assay type: in vivo, human
Procedure: Efficacy response was assessed using revised Response Evaluation Criteria in Solid Tumors (RECIST), version 1.1 [25] Macdonald criteria for GBM [26] or International Myeloma Working Group (IMWG) response criteria for multiple myeloma.

[3] = 240-mg dose expansion, ER + PR+ breast cancer
[4] = 240-mg dose expansion, ER + PR– breast cancer
[5] = 240-mg dose expansion, breast cancer
[6] = 240-mg dose expansion, multiple myeloma
[7] = 240-mg dose expansion, other solid tumors

CC(C)[C@@H](CS(=O)(=O)C(C)C)N1C(=O)[C@@](C)(CC(=O)O)C[C@H](c2cccc(Cl)c2)[C@H]1c1ccc(Cl)cc1 [AMG 232]
DLT observed ([1]; 120-mg cohort, patient with esophageal cancer): grade 3 thrombocytopenia on day 15 that worsened to grade 4 on day 17 | Additional patients with cytopenias (grade 4 neutropenia; grade 4 thrombocytopenia) outside of the 21-day DLT evaluation window ([1]; 300-mg cohort): Two | DLT observed ([1]; 360-mg cohort, patient with rectal cancer): grade 4 thrombocytopenia on day 28 | DLT observed ([1]; 480-mg cohort, patient with head and neck cancer): grade 3 neutropenia on day 22 that delayed treatment in the next cycle | highest safe and tolerable dose ([1]; DLTs and delayed cytopenias considered, QD 7 days Q3W): 240 mg | MTD (protocol-specified definition using DLTs incidence) ([1]; QD for 7 days Q3W, doses up to 480 mg): not reached | Patients with DLTs ([1]; dose escalation): Three | Stable disease as a best result ([2]; 240-mg dose expansion, DDLPS): 7 of 10 | median duration of stable disease ([2]; 240-mg dose expansion, DDLPS): 2.0 months | duration of stable disease, range [2, 3]: 0.9–4.0 months | median duration of stable disease [2, 3]: 2.0 months | duration of stable disease, range [2, 4]: 0.9–3.8 months | median duration of stable disease [2, 4]: 1.4 months | Stable disease as a best result ([2]; 240-mg dose expansion, GBM): six of 10 and 6 of 10 | median duration of stable disease ([2]; 240-mg dose expansion, GBM): 1.8 months | duration of stable disease, range ([2]; 240-mg dose expansion, WDLPS): 1.9–6.1 months | median duration of stable disease ([2]; 240-mg dose expansion, WDLPS): 3.9 months | Stable disease as a best result [2, 5]: 7 of 12 | duration of stable disease, range [2, 5]: 1.7–4.0 months | median duration of stable disease [2, 5]: 1.4–2.0 months and 2.0 months | Stable disease as a best result [2, 6]: 5 of 10 | duration of stable disease, range [2, 6]: 1.2–2.0 months | Stable disease as a best result [2, 7]: 10 of 16 | median duration of stable disease [2, 7]: 3.3 months | Patients with progressive disease ([2]; 240-mg dose expansion, overall): 15 (22%) n (%) | Patients with stable disease ([2]; 240-mg dose expansion, overall): 45 (66%) n (%) | duration of stable disease, range ([2]; 240-mg dose expansion, overall): 0.5–12.9 months | median duration of stable disease ([2]; 240-mg dose expansion, overall): 2.0 months | Patients with unconfirmed partial responses ([2]; central evaluation): 4% | Duration of unconfirmed partial response ([2]; central evaluation, patient with WDLPS): 2.4 months | Duration of unconfirmed partial response ([2]; central evaluation, patient with breast cancer): 2.0 months | Duration of unconfirmed partial response ([2]; central evaluation, patient with squamous cell carcinoma): 0.1 months | Patients with stable disease ([2]; dose escalation): 31 (80%) n (%) | duration of stable disease, range ([2]; dose escalation): 0.7–22.4 mo | median duration of stable disease ([2]; dose escalation): 3.1 months | Patients with non-complete response/non-progressive disease ([2]; dose escalation, based on non-target lesions): 2 (5%) n (%) | Objective responses ([2]; local evaluation, dose escalation and expansion): no responses; also recorded: no objective response
